pIC50: −log10 of the molar value. Values belong to the molecule of their own block, whether it stands above or below them.
Experiments:
ASB8 = test: Immunofluorescence staining of subcellular ASB8 localization in HAP1 cells; assay type: cell-based, human; conditions: stable FLAG-ASB8 expressing HAP1 cells; 200 nM overnight
Description: Figure 10. a Viability of KMS-28BM cells stably transduced with a stuffer or ASB8 coding lentiviral vector and treated with different concentrations of selinexor. b-e Viability of ASB8 knockout and ASB8 overexpressing HAP1 cells treated with different concentrations of KPT-9274 (b, c) or ispinesib (d, e). f-g Viability of ASB8 overexpressing KMS-28BM cells treated with different concentrations of KPT-9274 (f) or ispinesib (g). After four days (HAP1) or six days (KMS-28BM) of treatment with compound at the indicated concentrations, cell viability was measured by MTS assay. Data were normalized to untreated cells and represent mean ±SD of two or three separate experiments performed in triplicate. IC50 values were compared with control using an extra sum-of-squares F-test. h Representative images of fluorescence microscopy imaging of subcellular ASB8 localization. HAP1 cells with a stably integrated FLAG-ASB8 or a non-coding stuffer sequence were treated overnight with DMSO or 200 nM selinexor. Cells were fixed and stained with a primary anti-FLAG antibody. Nuclei were stained with DAPI. Figure 11. Co-immunoprecipitation of XPO1 with ASB8. HEK293T cells were transiently transfected with XPOL together with either FLAG-ASB8 or KPNA3-FLAG (control) plasmids. After 24 hours, selinexor was added at the indicated concentrations and cells were incubated for an additional 15 minutes. […]

HAP1 cells = test: Live cell count to establish selinexor IC values for CRISPR screening; assay type: cell-based; conditions: Homo sapiens, 96 h, live cells counted after four days and compared to untreated control flask
Description: To detect gene loss-of-function events that modulate sensitivity to XPO1 inhibition, we conducted genome-wide CRISPR-Cas9 screens in cells under selection with selinexor. We selected HAP1 cells for our initial screen as this chronic myeloid leukemia cell line is a relevant model^66,67 and has suitable characteristics for CRISPR screening, including a high proliferation rate and transduction efficiency. HAP1 cells were transduced with the Brunello genome-wide CRISPR knockout library in the one-vector configuration, in which sgRNA and Cas9 are expressed from a single lentiviral construct. Cells were split into control (DMSO) and selinexor-treated arms, further divided into three replicates per arm and passaged in parallel for 24 days (Fig. 1a). Selinexor was used at a concentration of 100 nM, corresponding to the IC50, i.e., the concentration at which the live cell count in the treated arm was half of that in the control arm after […]. At each passage, cells were harvested and per arm, an equal number of cells was reseeded with fresh compound. […]
To establish IC values for screening, cells were seeded in 150-cm^2 flasks and treated with selinexor at different concentrations for four days after which live cells were counted and compared to an untreated control flask. […]

SK-MM-1 cells = test: as above; assay type: cell-based; conditions: Homo sapiens, 96 h, live cells counted after four days and compared to untreated control flask
Description: (§1) To establish IC values for screening, cells were seeded in 150-cm^2 flasks and treated with selinexor at different concentrations for four days after which live cells were counted and compared to an untreated control flask. HAP1, KMS-28BM and SK-MM-1 cells were screened with the one-vector library encoding both sgRNA and Cas9 while for DS and RL cells, the two-vector library, which uses two separate vectors for the sgRNA and Cas9, was used. Cells were transduced at a MOI of approximately 0.25 and a coverage of >200-fold. Puromycin-selected cells were allowed to recover for 4-7 days after which selection with selinexor started. […] In addition, KMS-28BM were also screened at IC20, corresponding to a concentration of 40 nM. Finally, for every cell line, a no-drug condition was included (DMSO). For each condition, three parallel replicates containing at least 20 × 10^6 cells each were initiated after puromycin selection and maintained independently throughout screening and downstream processing. Cells were passaged every 2-4 days and cell pellets of 20 × 10^6 were collected at regular intervals. Screening continued for >20 cell doublings, more precisely until day 24, 42, 28, 28 and 25 for HAP1, KMS-28BM, SK-MM-1, DS and RL cells, respectively.

DS cells = test: as above; assay type: cell-based; conditions: Homo sapiens, 96 h, live cells counted after four days and compared to untreated control flask
Description: as §1

KMS-28BM cells = test: as above; assay type: cell-based; conditions: Homo sapiens, 96 h, live cells counted after four days and compared to untreated control flask
Description: as §1

RL cells = test: as above; assay type: cell-based; conditions: Homo sapiens, 96 h, live cells counted after four days and compared to untreated control flask
Description: as §1

XPO1 = target: T1, XPO1 (Homo sapiens, UniProt O14980); test: Western blot (Simple Western) monitoring XPO1 degradation in HAP1 cells; assay type: cell-based; conditions: for XPO1 degradation: overnight treatment
T1 construct: endogenous in cells
Description: Figure 4. XPO1 protein degradation is regulated by ASB8. a-b Sensitization profile of HAP1 cells with either knockout or overexpression of ASB8 under selection with selinexor. Cell viability when transduced with a safe-targeting or ASB8 targeting sgRNA (a). Cell viability when transduced with a non-coding stuffer sequence or ASB8 coding sequence at two different multiplicities of infection (MOI) (b). After four days of treatment with compound at the indicated concentrations, cell viability was measured by MTS assay. Data were normalized to untreated cells and represent mean ±SD of three separate experiments performed in triplicate. IC50 values were compared with control using an extra sum-of-squares F-test. c-d Monitoring of XPOL degradation in HAP1 cells with western blot. Comparison of cells stably transduced with a safe-targeting versus ASB8 targeting sgRNA (c) or with a stuffer sequence versus ASB8 coding sequence (d). Cells were treated overnight with selinexor and bortezomib as indicated. Cells were harvested and total lysates were probed for XPO1 and TUBB (β-tubulin) protein levels. e Time-of-drug-addition assay in HAP1 cells harboring a stuffer or ASB8 coding sequence (MOI=0.2). Duration of treatment with selinexor is as indicated. For bortezomib, length of treatment was 24 h for all conditions. f Selinexor-induced degradation of XPO1 in HAP1 cells with an endogenous Cys528Ser mutation introduced by CRISPR-mediated homology-directed repair. Following stable transduction of XPOL wild-type and mutant cells with a stuffer or ASB8 coding sequence (MOI=0.2), cells were treated overnight with compound as indicated.
For the experiments monitoring XPO1 degradation, HAP1 cells were seeded in 6-well plates at 100,000 cells/mL. The next day, cells were treated with selinexor and/or bortezomib as indicated. The pan-caspase inhibitor Q-VD-OPh was added to all conditions at 10 µM final concentration to delay onset of apoptosis. Cells were treated with compound overnight or as indicated. Next, cells were harvested, washed with ice-cold PBS and lysed in RIPA buffer (Thermo Fisher Scientific) with 1× HALT Protease Inhibitor Cocktail (Thermo Fisher Scientific) on ice for 20 min. Cell debris was removed by centrifugation at 20.000 × g and 4 °C for 10 min and total protein content was quantified with the Pierce BCA Protein Assay kit (Thermo Fisher Scientific). We used an automated, capillary-based Simple Western size assay (Wes, ProteinSimple) to detect and quantify our proteins of interest. 5 µL of lysate at a final concentration of 200 µg/mL was loaded onto the assay plate. For detection, the following primary antibodies and dilutions were used: CRM1/XPO1 (NB100-79802, Novus, 1:1000), TUBB (NB600-936, Novus, 1:40) and FLAG (F4049, Sigma-Aldrich, 1:250). […]

ASB8 interacts with XPO1 = target: T2, ASB8 interacts with XPO1 (Homo sapiens, UniProt O14980); test: Co-immunoprecipitation of XPO1 with FLAG-ASB8 in HEK293T cells; assay type: binding; conditions: HEK293T cells co-transfected with XPO1 and FLAG-ASB8; 15 minutes treatment; higher concentrations
T2 construct: expressed in transfected cells; host or cells: HEK293T cells, transient transfection (TurboFectin 8.0)
Description: Figure 5. ASB8 interacts with XPO1. HEK293T cells were transiently transfected with XPO1 alone or together with either FLAG-ASB8 or FLAG-luc2 plasmids. After 24 hours, selinexor was added at the indicated concentrations and cells were incubated for 15 minutes. Next, cells were collected and incubated with lysis buffer for 20 minutes (whole-cell lysate, WCL). From these lysates, FLAG fusions were pulled down and co-immunoprecipitation of XPO1 was checked with western blot (IP: FLAG).
(§2) Figure 10. a Viability of KMS-28BM cells stably transduced with a stuffer or ASB8 coding lentiviral vector and treated with different concentrations of selinexor. b-e Viability of ASB8 knockout and ASB8 overexpressing HAP1 cells treated with different concentrations of KPT-9274 (b, c) or ispinesib (d, e). f-g Viability of ASB8 overexpressing KMS-28BM cells treated with different concentrations of KPT-9274 (f) or ispinesib (g). After four days (HAP1) or six days (KMS-28BM) of treatment with compound at the indicated concentrations, cell viability was measured by MTS assay. […] IC50 values were compared with control using an extra sum-of-squares F-test. h Representative images of fluorescence microscopy imaging of subcellular ASB8 localization. […]
The protocol for lysis and co-immunoprecipitation was modified from an earlier report^64. […] After 15 min of incubation, cells were harvested and counted. […]

XPO1 Cys528Ser mutation = target: T3, XPO1 Cys528Ser mutation (Homo sapiens, UniProt O14980, C528S); test: Western blot (Simple Western) monitoring XPO1 degradation in HAP1 XPO1 C528S mutant cells; assay type: cell-based; conditions: HAP1 cells with endogenous XPO1 Cys528Ser mutation; control and ASB8 overexpressing; overnight treatment
T3 construct: HAP1 cells with an endogenous Cys528Ser mutation introduced by CRISPR-mediated homology-directed repair; endogenous in cells
Description: (§3) Figure 4. XPO1 protein degradation is regulated by ASB8. a-b Sensitization profile of HAP1 cells with either knockout or overexpression of ASB8 under selection with selinexor. Cell viability when transduced with a safe-targeting or ASB8 targeting sgRNA (a). Cell viability when transduced with a non-coding stuffer sequence or ASB8 coding sequence at two different multiplicities of infection (MOI) (b). After four days of treatment with compound at the indicated concentrations, cell viability was measured by MTS assay. Data were normalized to untreated cells and represent mean ±SD of three separate experiments performed in triplicate. IC50 values were compared with control using an extra sum-of-squares F-test. c-d Monitoring of XPOL degradation in HAP1 cells with western blot. Comparison of cells stably transduced with a safe-targeting versus ASB8 targeting sgRNA (c) or with a stuffer sequence versus ASB8 coding sequence (d). […]
For the experiments monitoring XPO1 degradation, HAP1 cells were seeded in 6-well plates at 100,000 cells/mL. […] Cell debris was removed by centrifugation at 20.000 × g and 4 °C for 10 min and total protein content was quantified with the Pierce BCA Protein Assay kit (Thermo Fisher Scientific). We used an automated, capillary-based Simple Western size assay (Wes, ProteinSimple) to detect and quantify our proteins of interest. […]

[1] = tested on: ASB8 knockout and overexpressing cells; test: MTS cell viability assay in ASB8 knockout and ASB8 overexpressing cells; assay type: cell-based, human; conditions: HAP1 four days, KMS-28BM six days of treatment
Description: as §3, with “(d). Cells were treated overnight with selinexor and bortezomib as indicated.” for “(d).”
as §2
HAP1 cells were seeded in 96-well plates at 2500 cells/well in 100 µL medium. […] For each experiment, absorbance measurements of three replicate wells were averaged. […]

T1 sequence (O14980 whole entry): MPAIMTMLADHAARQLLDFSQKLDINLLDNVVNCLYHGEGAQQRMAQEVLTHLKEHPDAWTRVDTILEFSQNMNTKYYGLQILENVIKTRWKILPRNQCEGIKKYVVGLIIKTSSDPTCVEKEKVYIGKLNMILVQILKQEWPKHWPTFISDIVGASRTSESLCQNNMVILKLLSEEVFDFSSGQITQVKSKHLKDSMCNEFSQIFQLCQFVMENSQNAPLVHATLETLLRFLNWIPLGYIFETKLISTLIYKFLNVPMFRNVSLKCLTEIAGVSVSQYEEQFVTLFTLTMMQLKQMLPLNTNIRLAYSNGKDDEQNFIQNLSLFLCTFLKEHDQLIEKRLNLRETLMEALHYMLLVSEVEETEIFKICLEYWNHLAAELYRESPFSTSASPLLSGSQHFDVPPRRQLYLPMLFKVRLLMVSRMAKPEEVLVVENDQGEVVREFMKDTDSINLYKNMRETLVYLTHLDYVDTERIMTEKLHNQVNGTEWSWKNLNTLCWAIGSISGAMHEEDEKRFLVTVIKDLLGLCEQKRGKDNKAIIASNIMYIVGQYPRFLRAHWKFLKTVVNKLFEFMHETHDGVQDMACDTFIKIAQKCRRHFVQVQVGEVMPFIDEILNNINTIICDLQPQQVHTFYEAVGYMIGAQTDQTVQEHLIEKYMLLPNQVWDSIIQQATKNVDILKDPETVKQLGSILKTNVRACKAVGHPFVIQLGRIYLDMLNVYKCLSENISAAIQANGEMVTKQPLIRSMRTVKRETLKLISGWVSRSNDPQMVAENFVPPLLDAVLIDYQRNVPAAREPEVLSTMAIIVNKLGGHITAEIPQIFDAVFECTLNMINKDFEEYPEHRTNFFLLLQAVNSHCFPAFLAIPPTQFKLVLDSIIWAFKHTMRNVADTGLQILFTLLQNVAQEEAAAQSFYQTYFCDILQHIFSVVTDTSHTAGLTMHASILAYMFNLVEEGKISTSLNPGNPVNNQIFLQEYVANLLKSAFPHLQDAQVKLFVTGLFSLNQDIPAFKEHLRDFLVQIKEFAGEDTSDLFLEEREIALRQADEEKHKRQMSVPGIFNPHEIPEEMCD
T2 sequence (O14980 whole entry): as above
T2 sequence (Q9H765 whole entry partner): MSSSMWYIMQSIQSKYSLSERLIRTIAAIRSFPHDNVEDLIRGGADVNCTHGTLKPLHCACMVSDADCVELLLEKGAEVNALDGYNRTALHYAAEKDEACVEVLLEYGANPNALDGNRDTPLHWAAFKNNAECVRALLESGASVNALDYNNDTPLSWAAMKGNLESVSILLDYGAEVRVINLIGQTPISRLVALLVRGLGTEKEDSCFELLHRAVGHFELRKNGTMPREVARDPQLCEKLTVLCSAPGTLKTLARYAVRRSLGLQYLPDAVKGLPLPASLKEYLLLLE
T3 sequence (O14980 whole entry C528S): as the sequence (O14980 whole entry) above, with C528S counted along it

pIC50 (HAP1 cells): 7.00
pIC50 (SK-MM-1 cells): 6.85
pIC50 (DS cells): 6.70
pIC50 (KMS-28BM cells): 6.90
pIC50 (RL cells): 7.40
XPO1 degradation (XPO1; HAP1 control cells with safe-targeting sgRNA): dose-dependent degradation of XPO1
XPO1 degradation (XPO1 Cys528Ser mutation): did not trigger XPO1 degradation
Compound: O=C(/C=C\n1cnc(-c2cc(C(F)(F)F)cc(C(F)(F)F)c2)n1)NNc1cnccn1 [selinexor]
nuclear accumulation of ASB8 (ASB8): did not observe nuclear accumulation of ASB8
IC20 (KMS-28BM cells): 40 nM
XPO1 degradation (XPO1; HAP1 ASB8 knockout cells): did not observe selinexor-induced XPOL degradation to the same extent
XPO1 degradation (XPO1; HAP1 ASB8 overexpressing cells, with and without bortezomib): XPO1 was profoundly depleted even in the presence of bortezomib
amount of XPO1 co-immunoprecipitated with FLAG-ASB8 (ASB8 interacts with XPO1): increased the amount of immunoprecipitated XPO1
sensitivity (dose-response) in ASB8 knockout and overexpressing cells versus control [1]: increased sensitivity

effect on selinexor-induced XPO1 degradation (XPO1; HAP1 control cells with safe-targeting sgRNA, co-treatment with selinexor overnight): prevented
Compound: CC(C)C[C@H](NC(=O)[C@H](Cc1ccccc1)NC(=O)c1cnccn1)B(O)O [bortezomib]

Compound: Cc1ccc(C(=O)N(CCCN)[C@@H](c2nc3cc(Cl)ccc3c(=O)n2Cc2ccccc2)C(C)C)cc1 [ispinesib]
sensitivity (dose-response) in ASB8 knockout and overexpressing cells versus control [1]: no difference in response

Compound: Nc1ccc(/C=C/C(=O)NCc2cc3cc(-c4ccc(C(=O)N5CCC(F)(F)CC5)cc4)cc(-c4ccc(F)cc4)c3o2)cn1 [KPT-9274]
sensitivity (dose-response) in ASB8 knockout and overexpressing cells versus control [1]: no difference in response
